Test results from patent US20060287273A1, “Methods and reagents for inhibiting cell proliferation” (priority 2005, published 2006).

Test system: MDA-MB-435S cells
Experiment: TUNEL assay analyzed by FACS (apoptosis)
Format: cell-based, human
Settings: 48 hours post-transfection; staurosporine 1 uM; versus control siRNA
Procedure: To examine this possibility, we utilized the TUNEL assay, which measures the appearance of free DNA ends that are the result of DNA fragmentation that occurs in the latter stages of apoptosis. MDA-MB-435S cells in 6 well dishes were transfected with the corresponding siRNA or treated with 1 uM staurosporine. 48 hours post-transfection, any detached cells were combined with cells detached using trypsin and the cells were washed, fixed with paraformaldehyde, subjected to TUNEL assay, and analyzed by FACS. […] Cells to be assayed were trypsinized, washed twice with PBS, followed by fixation for 20 min. in 1.5% paraformaldehyde in PBS at 4° C. with gentle mixing. The cells were then washed twice with PBS, suspended in 70% ethanol at 4° C., and stored at −20° C. until assayed. When assayed, the cells were washed twice with PBS and then resuspended in 50 μl of Tunel assay buffer consisting of 100 mM potassium cacodylate (pH 7.2), 2 mM CoCl2, 0.2 mM dithiotheitol, 3.3 nM fluorescein-conjugated dUTP, 13 nM DATP and 11 units of terminal deoxynucleotidyl transferase for 90 minutes at 37° C. The cells were then washed twice with PBS and analyzed by FACS sorting.

SMILES: CN[C@@H]1C[C@H]2O[C@@](C)([C@@H]1OC)n1c3ccccc3c3c4c(c5c6ccccc6n2c5c31)C(=O)NC4 [Staurosporine]
- apoptosis, incorporation of fluorescein-labeled dUTP: most dramatic increase in apoptotic cells
